Experimental data taken from PMC12281424, “A Rac-specific competitive inhibitor of guanine nucleotide binding reduces metastasis in triple-negative breast cancer” (Cell Reports Medicine, 2025).

What was measured:
RAC1 G30S = biological target: T1, RAC1 G30S (Homo sapiens, UniProt P63000, G30S); assay: GEF-stimulated nucleotide exchange; assay type: biochemical; set-up: dose or concentration left out as unconfirmed
T1 construct: Full-length RAC1G30S was obtained by directed mutagenesis on the pET-3a-RAC1HisCter plasmid; 6xHis (C); made in house
Source text: Figure 4 A41 selectively impairs RAC protein activation (A) Representative surface plasmon resonance (SPR) sensograms of binding of immobilized RHOA or CDC42 with indicated increasing concentrations of A41 (N > 3). (B) Effect of A41 on GEF-stimulated RAC2, RHOG, RHOA, and CDC42 nucleotide exchange. […] Kobs is expressed as mean ± SEM. ∗p < 0.001 vs. control. (C) Effect of A41 on RAC1 G30S activation. […] Data are expressed as mean ± SEM. (D) Immunoblot analysis and associated quantification of RAC-GTP level and total RAC expression in NIH-3T3 fibroblasts expressing RAC wild-type (RAC1 WT) or RAC1 oncomutants (RAC1 P29S and RAC1b) in the absence (Ctrl) and presence of A41 (10 μM). RAC activation was measured as the ratio of RAC-GTP to total RAC and expressed relative to Ctrl condition. Data are presented as mean ± SEM. ∗∗∗p < 0.001 vs. controls.
Full-length RAC1 carrying a 6xHis tag in C-terminus was purified as previously described.[64] […] Specific exchange activity toward RHOA determined by fluorescence kinetics is 0.04 s^−1M^−1.
Nucleotide exchange kinetics were measured by recording the increase in fluorescence following the association of mant-GTP on GDP-bound RHO protein or the decay in fluorescence following the dissociation of mant-GDP pre-loaded onto the RHO protein (λEx = 360 nm, λEm = 440 nm) as previously described.[39] […]

NIH/3T3 cell migration = assay: 1D cell migration (CYTOO plates); assay type: cell-based; settings: 10^-5 M
Experimental: NIH3T3cells (1000/well) were seeded in a 96 well plate with […] fibronectin stripes (CytooPlates Motility, CYTOO) in medium with 1% SVF and allowed to spread for 4 h before capturing time-lapse images for 24 h (image/10 min) on a Widefield Leica DMI 6000B drove with Metamorph software. Cells speed was measured with ImageJ software.
Supplementary Fig. 3: Example of one pharmacophore model used for virtual screening. (a) The pharmacophore model shown was created based on RAC1 (grey) and NSC23766 (orange) interaction. The pharmacophore model is formed by two hydrogenbond acceptor(HBA)features,one orientedtowardsthe hydroxylgroup of Ser71 (S71) and the other towards the amine group of Gln74 (Q74), one hydrogen bond donor (HBD) feature pointed to the oxygenatom of Leu70 (L70) and two hydrophobic features (HY) located on certain carbon atoms of NSC23766 and facing residues Val36 (V36), Ala59 (A59), Tyr64 (Y64) and Leu67 (L67). The spheres correspond to locationconstraint. […] (b) Impact of different screening molecules (10^-5 M) on NIH/3T3 cell adhesion (xCELLingence Real-time cellanalysis, Agilent), migration (CYTOO Mobility plates) and proliferation (xCELLingence Real-time cell analysis, Agilent) .The level of RAC activation is determinedby the detection of RAC-GTP (pull-down assay) in NIH/3T3 cell treated with EGF (10 ng/mL) and the differentmolecules and normalize to the level of RAC activity measuredin the presenceof the reference RAC inhibitor EHT1864.
Supplementary Fig. 4: A41 inhibits RAC-dependent cell functions. (a) Representative records of single NIH/3T3 cell migration on micropatterned fibronectin lines (CYTOO Mobility plates) in the absence (Control)and presenceA41 at 10^-5 M (left panel) and corresponding quantification of migration speed (right panel) (scale bar: 20µm). […] (b) Typical curves showing the cell index representing the adhesion of NIH/3T3 fibroblast (xCELLingence Real-time cell analysis, Agilent) under control condition (Control) and pre-treated with 10 µM A41 or NSC23766 (left panel) and corresponding quantification of cell adhesion speed (right panel). […]

NDR1(h) = NDR1(h) (Homo sapiens, UniProt Q15208); assay: Kinase Profiler; assay type: biochemical
Sequence of NDR1(h) (Q15208 whole entry): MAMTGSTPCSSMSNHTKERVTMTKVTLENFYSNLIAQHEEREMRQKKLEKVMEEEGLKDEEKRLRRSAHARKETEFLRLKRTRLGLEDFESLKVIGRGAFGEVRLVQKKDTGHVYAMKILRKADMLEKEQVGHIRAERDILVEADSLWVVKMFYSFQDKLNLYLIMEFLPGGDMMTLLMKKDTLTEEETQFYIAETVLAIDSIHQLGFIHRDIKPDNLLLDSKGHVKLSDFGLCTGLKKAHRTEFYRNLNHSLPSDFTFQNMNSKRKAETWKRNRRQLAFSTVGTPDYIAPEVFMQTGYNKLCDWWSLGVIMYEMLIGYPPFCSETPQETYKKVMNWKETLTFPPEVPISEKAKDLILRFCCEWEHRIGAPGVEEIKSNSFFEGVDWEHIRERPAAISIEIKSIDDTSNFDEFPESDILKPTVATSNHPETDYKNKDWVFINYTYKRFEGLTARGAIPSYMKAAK
Experimental: The kinase profiler was performed by the company Eurofins (Discovery, Panlab and Cerep).

COc1ccc(OC)c(NS(=O)(=O)c2ccc(NC(=O)CCSc3ccc(C)cc3)cc2)c1 [Compound A41]
TRIO-induced nucleotide exchange on RAC1 G30S (RAC1 G30S): not able to inhibit
cell migration (NIH/3T3 cell migration): efficiently inhibited both functions
Activity(%) (NDR1(h)): 114%
